# Measurements: patent US6821999B2 (priority 2001, dated 2004)
# Where two headings read alike, the source gives them in different places.
# Legend:
# Assay type in all cases: cell-based, Staphylococcus aureus
# S. aureus (MN8) = details: for TSST-1 produced compared to the control: S. aureus MN8, in the presence of the compound
# S. aureus FRI-1169 = details: S. aureus FRI-1169, in the presence of triclosan
# S. aureus FRI-1187 = details: S. aureus FRI-1187, in the presence of triclosan
Compound,Reduction of Toxin (%) (S. aureus (MN8)),reduced the amount of toxin produced (S. aureus (MN8)),TSST-1 produced compared to the control (S. aureus (MN8)),"Reduction of Toxin (%) (S. aureus (MN8); S. aureus MN8, test compound 2 μg/mL, 24 h, vs methanol control)",TSST-1 produced compared to the control (S. aureus FRI-1169),"Reduction of Toxin (%) (S. aureus (MN8); S. aureus MN8, test compound 0.01 μg/mL, 24 h, vs methanol control)",TSST-1 produced compared to the control (S. aureus FRI-1187)
"Oc1ccc(Cc2ccccc2)cc1 [4-Hydroxydiphenyl-methane, 4-hydroxydiphenyl methane]",24,about 24%,–,–,–,–,–
"Oc1c(Cl)cc(Cl)c(Cl)c1Cc1c(O)c(Cl)cc(Cl)c1Cl [Hexachlorophene, hexachlorophene]",–,–,significantly less,68,–,–,–
"Oc1cc(Cl)ccc1Oc1ccc(Cl)cc1Cl [Triclosan, triclosan]",–,–,significantly less,–,produced less TSST-1,88,produced less TSST-1
